Several values for one entry are separate records, joined by “and”; a condition that tells them apart may be missing. Identical values can stand only once.
Assays:
FKBP12 [1] = molecular target: T1, FKBP12 (Homo sapiens, UniProt P62942); assay: Rotamase inhibition assay (N-succinyl-Ala-Ala-Pro-Phe-p-nitroanilide, chymotrypsin-coupled); assay type: biochemical; settings: Table 1; read-out: Rotamase Ki(app)
Experimental: In the rotamase inhibition assay, isomerization of an artificial substrate N-succinyl-Ala-Ala-Pro-Phe-p-nitroanilide is followed spectrophotometrically. The assay includes the cis form of the substrate, FKBP12, the compound being tested, and chymotrypsin. Chymotrypsin is able to cleave p-nitroaniline from the trans form of the substrate, but not from the cis form. Release of p-nitroaniline is measured spectrophotometrically. Using this assay, various amounts of the FKBP rotamase-inhibiting compounds of formula (I) were added to cis-N-succinyl-alanine-alanine-proline-phenylalanine-para-nitroaniline (BACHEM, 3132 Kashiwa Street, Torrance, Calif. 90505) in the presence of FKBP12 and chymotrypsin. Spectrophotometric measurements of p-nitroaniline concentrations allowed estimation of the apparent Ki values, which are provided in Table 1 below.

FKBP12 [2] = molecular target: T1, FKBP12; assay: Affinity for FKBP-12 (Ki), succinyl-Ala-Leu-Pro-Phe-pNA chymotrypsin-coupled assay; assay type: biochemical; design: key to FKBP12 inhibition (in Kiapps column): NI: no inhibition; NSI: no significant inhibition; settings: for Ki: Table 2, read-out: FKBP12 Kiapps; for FKBP12 inhibition (in Kiapps column): @ 20
Experimental: In a quartz cuvette, a final 1 mL buffer concentration was reached (50 mM Hepes, 100 mM NaCl, pH 8.0). Within this final reaction volume, 3.5 μL […] FKBP-12 (in 50 mM Hepes, 100 mM NaCl, pH 8.0) and 10 μL test compound in DMSO were added. The reaction was initiated by adding 10 μL chymotrypsin (100 mg/mL in 1 mM HCl) followed by 5 μL (1-20 mM succinyl-Ala-Leu-Pro-Phe-pNA in 240 mM LiCl/TFE).
The absorbance at 390 nm versus time was monitored for up to 400 seconds. Rate constants were determined from the absorbance versus time plots generated.

T1 sequence (P62942 whole entry, species assumed): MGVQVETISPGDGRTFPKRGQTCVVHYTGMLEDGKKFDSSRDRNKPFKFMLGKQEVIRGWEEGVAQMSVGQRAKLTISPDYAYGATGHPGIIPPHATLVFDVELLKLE

Compound	Ki (FKBP12 [1]) [nM]	Ki (FKBP12 [2])	FKBP12 inhibition (in Kiapps column) (FKBP12 [2])
COc1cc(NS(=O)(=O)N2CCCC[C@H]2C(=O)OC(CCCc2ccccc2)CCCc2ccccc2)cc(OC)c1OC [Compound 22, 1-(3,4,5-Trimethoxy-phenylsulfamoyl)-piperidine-2S-carboxylic acid 4-phenyl-1-(3-phenyl-propyl)-butyl ester]	382		
CCC(C)(C)NS(=O)(=O)N1CCCC[C@H]1C(=O)OC(CCCc1ccccc1)CCCc1ccccc1 [Compound 23, 1-(1,1-Dimethyl-propylsulfamoyl)-piperidine-2S-carboxylic acid 4-phenyl-1-(3-phenyl-propyl)-butyl ester]	6990		
O=C(OCCCCc1ccccc1)[C@@H]1CCCCN1S(=O)(=O)Nc1ccccc1 [Compound 24, 1-Phenylsulfamoyl-piperidine-2S-carboxylic acid 4-phenyl-butyl ester]	1160	1160 nM and 508 nM	
CCC(C)(C)NS(=O)(=O)N1CCCC[C@H]1C(=O)OCCCCc1ccccc1 [Compound 26, 1-(1,1-Dimethyl-propylsulfamoyl)-piperidine-2S-carboxylic acid 4-phenyl-butyl ester]	193	193 nM and 218 nM	
COC(=O)[C@@H]1CCCCN1S(=O)(=O)Nc1cc(OC)c(OC)c(OC)c1 [Compound 90, (S)-1-(3,4,5-Trimethoxy-phenylsulfamoyl)-piperidine-2-carboxylic acid Methyl ester]		6900 nM	
COc1cc(NS(=O)(=O)N2CCCC[C@H]2C(=O)NCCCN2CCCCC2)cc(OC)c1OC [Compound 91, (S)-1-(3,4,5-Trimethoxy-phenylsulfamoyl)-piperidine-2-carboxylic acid (3-piperidin-1-yl-propyl)-amide]		1300 nM	
O=C(OCCCCc1ccccc1)[C@@H]1CCCCN1S(=O)(=O)Nc1cc(F)c(F)c(F)c1 [Compound 95, (S)-1-(3,4,5-Trifluoro-phenylsulfamoyl)-piperidine-2-carboxylic acid 4-phenyl-butyl ester]		435 nM	
O=C(OCCCCc1ccccc1)[C@@H]1CCCCN1S(=O)(=O)Nc1ccc(C(F)(F)F)nc1 [Compound 96, (S)-1-(6-Trifluoromethyl-pyridin-3-ylsulfamoyl)-piperidine-2-carboxylic acid 4-phenyl-butyl ester]		440 nM	
O=C(OCCCCc1ccccc1)[C@@H]1CCCCN1S(=O)(=O)N(O)c1ccccc1 [Compound 99, (S)-1-(Hydroxy-phenyl-sulfamoyl)-piperidine-2-carboxylic acid 4-phenyl-butyl ester]			NI @ 20
COc1cc(NS(=O)(=O)N2CCCC[C@H]2C(=O)OC(COCc2ccccc2)COCc2ccccc2)c(OC)cc1Cl [Compound 104, (S)-1-(4-Chloro-2,5-dimethoxy-phenylsulfamoyl)-piperidine-2-carboxylic acid 2-benzyloxy-1-benzyloxymethyl-ethyl ester]		7100 nM	
CCC(C)(C)NS(=O)(=O)N1CCC[C@H]1COC(=O)N(CCc1ccccc1)Cc1ccccc1 [Compound 113, Benzyl-phenethyl-carbamic acid (S)-1-(dimethyl-propylsulfamoyl)-pyrrolidin-2-ylmethyl ester]		33000 nM	
CCC(C)(C)NS(=O)(=O)N1CCC[C@H]1C(=O)NCCCc1cccnc1 [Compound 114, (S)-1-(1,1-Dimethyl-propylsulfamoyl)-pyrrolidine-2-carboxylic acid (3-pyridin-3-yl-propyl)-amide]		1110 nM	
O=C(OCc1ccccc1)[C@@H]1CCCN1S(=O)(=O)Nc1cccnc1 [Compound 115, (S)-1-(Pyridin-3-ylsulfamoyl)-pyrrolidine-2-carboxylic acid benzyl ester]		20400 nM	
O=C(O)[C@@H]1CCCN1S(=O)(=O)Nc1cccnc1 [Compound 116, (S)-1-(Pyridin-3-ylsulfamoyl)-pyrrolidine-2-carboxylic acid]			NSI @ 20
O=C1[C@@H]2CCCN2S(=O)(=O)N1c1cccnc1 [Compound 117, (S)-1,1-Dioxo-2-pyridin-3-yl-hexahydro-1λ^6-thia-2,6a-diaza-pentalen-3-one]			NSI @ 20
O=C(NCCCc1ccccc1)[C@@H]1CCCN1S(=O)(=O)Nc1cccnc1 [Compound 118, (S)-1-(Pyridin-3-ylsulfamoyl)-pyrrolidine-2-carboxylic acid (3-phenyl-propyl)-amide]		16900 nM	
COc1cc(NS(=O)(=O)N2CCCC[C@H]2C(=O)CCCCCc2ccccc2)cc(OC)c1OC [Compound 119, (S)-2-(6-Phenyl-hexanoyl)-piperidine-1-sulfonic acid (3,4,5-trimethoxy-phenyl)-amide]		1300 nM	

Now from value to compound:

Ki (FKBP12 [1]) [nM]	Ki (FKBP12 [2])	FKBP12 inhibition (in Kiapps column) (FKBP12 [2])	Compound
	200 nM		COc1cc(NS(=O)(=O)N2CCCC[C@H]2C(=O)NCCCc2cccnc2)cc(OC)c1OC [Compound 93, (S)-1-(3,4,5-Trimethoxy-phenylsulfamoyl)-piperidine-2-carboxylic acid (3-pyridin-3-yl-propyl)-amide]
	208 nM		O=C(OCCCCc1ccccc1)[C@@H]1CCCCN1S(=O)(=O)Nc1ccc(N2CCOCC2)nc1 [Compound 94, (S)-1-(6-Morpholin-4-yl-pyridin-3-ylsulfamoyl)-piperidine-2-carboxylic acid 4-phenyl-butyl ester]
	73 nM		O=C(OCCCCc1ccccc1)[C@@H]1CCCCN1S(=O)(=O)Nc1cccnc1 [Compound 97, (S)-1-(Pyridin-3-ylsulfamoyl)-piperidine-2-carboxylic acid 4-phenylbutyl ester]
	218 nM		COc1cccc(NS(=O)(=O)N2CCCC[C@H]2C(=O)OCCCCc2ccccc2)c1 [Compound 98]
	171 nM		COc1cc(NS(=O)(=O)N2CCCC[C@H]2C(=O)OC(COCc2ccccc2)COCc2ccccc2)cc(OC)c1OC [Compound 102, (S)-1-(3,4,5-Trimethoxy-phenylsulfamoyl)-piperidine-2-carboxylic acid 2-benzyloxy-1-benzyloxymethyl-ethyl ester]
	39 nM		COc1ccc(NS(=O)(=O)N2CCCC[C@H]2C(=O)OC(COCc2ccccc2)COCc2ccccc2)cn1 [Compound 103, (S)-1-(6-Methoxy-pyridin-3-ylsulfamoyl)-piperidine-2-carboxylic acid 2-benzyloxy-1-benzyloxymethyl-ethyl ester]
	33 nM		O=C(OC(COCc1ccccc1)COCc1ccccc1)[C@@H]1CCCCN1S(=O)(=O)Nc1cccnc1 [Compound 105, (S)-1-(Pyridin-3-ylsulfamoyl)-piperidine-2-carboxylic acid 2-benzyloxy-1-benzyloxymethyl-ethyl ester]
	115 nM		O=C(OC(COCc1ccccc1)COCc1ccccc1)[C@@H]1CCCCN1S(=O)(=O)Nc1ccc(N2CCOCC2)nc1 [Compound 106, (S)-1-(6-Morpholin-4-yl-pyridin-3-ylsulfamoyl)-piperidine-2-carboxylic acid 2-benzyloxy-1-benzyloxymethyl-ethyl ester]
	88 nM		Cc1ccc(NS(=O)(=O)N2CCCC[C@H]2C(=O)OC(COCc2ccccc2)COCc2ccccc2)cn1 [Compound 107, (S)-1-(6-Methyl-pyridin-3-ylsulfamoyl)-piperidine-2-carboxylic acid 2-benzyloxy-1-benzyloxymethyl-ethyl ester]
	127 nM		O=C(OC(COCc1ccccc1)COCc1ccccc1)[C@@H]1CCCCN1S(=O)(=O)Nc1cnc(N2CCOCC2)c(C(F)(F)F)c1 [Compound 108, (S)-1-(Morpholin-4-yl-trifluoromethyl-pyridin-3-ylsulfamoyl)-piperidine-2-carboxylic acid 2-benzyloxy-1-benzyloxymethyl-ethyl ester]
	41 nM		COc1cc(NS(=O)(=O)N2CCCC[C@H]2C(=O)N[C@H](COCc2cccnc2)C(C)C)cc(OC)c1OC [Compound 112, (S)-1-(3,4,5-Trimethoxy-phenylsulfamoyl)-piperidine-2-carboxylic acid [(S)-2-methyl-1-(pyridin-3-ylmethoxymethyl)-propyl]-amide]
